Molecules are shown by their SMILES. Active and inactive are the calls of the source. The calls are words filed in the database; no cut-off is given here.

Data set [1] in a line: AUC (0 to infinity) in Sprague-Dawley rat at 10 mg/kg, po measured after 24 hrs by LC-MS analysis. In kind it is ADME, organism-based. Particulars: in vivo.
In data set [2] the test system is Mus musculus. The data set is described as follows: Protection against alcoholic liver disease in NIAAA C57BL/6J mouse model assessed as decrease in serum ALT level at 1 to 2.5 mg/kg, po preadministered with 1 to 4 % of alcohol for 10 days with subsequent compound addition from day 6 to 11 and further administered with 31.25 % alcohol on day 11 and measured after 9 hrs by absorbance based plate analyzer. Particulars: dose 1-2.5 mg/kg, time 5.0 day. In kind it is functional, organism-based.

In data set [3] the test system is Mus musculus. Put plainly: Protection against alcoholic liver disease in NIAAA C57BL/6J mouse model assessed as improvement of steatosis at 1 to 2.5 mg/kg, po preadministered with 1 to 4 % of alcohol for 10 days with subsequent compound addition from day 6 to 11 and further administered with 31.25 % alcohol on day 11 and measured after 9 hrs by H&E staining based light microscopic analysis. It counts as functional, organism-based. As to conditions: dose 1-2.5 mg/kg, time 5.0 day.

The test system of data set [4] is Mus musculus. The data set is described as follows: Protection against alcohol use disorder in C57BL/6J mouse model assessed as decrease in alcohol intake at 1 to 2.5 mg/kg, po pre-trained with alcohol and water for 42 days with subsequent compound addition from day 22 to day 42 followed by 3.5 hrs of darkness and compound administration for 30 mins followed by water replacement with alcohol for 4 hrs on day 46 by Drink-in-Dark test. In kind it is functional, organism-based. As to conditions: dose 1-2.5 mg/kg, time 23.0 day.

Data set [5] is described as follows: Selectivity ratio for inhibition of PDE8A1 (unknown origin) using FAM-cyclic-3',5'-AMP as substrate to inhibition of PDE4B1 (unknown origin) using FAM-cyclic-3',5'-AMP as substrate.
Data set [6] is described as follows: Cmax in Sprague-Dawley rat at 10 mg/kg, po measured after 24 hrs by LC-MS analysis. In kind it is ADME, organism-based. Particulars: in vivo.
Data set [7] deals with Mus musculus. The data set is described as follows: Protection against alcohol exposure-induced anxiety like behavior in C57BL/6J mouse model assessed as increase in center time at 1 to 2.5 mg/kg, po pre-trained with alcohol and water for 42 days with subsequent compound addition from day 22 to day 42 followed by 3.5 hrs of darkness and compound administration for 30 mins followed by water replacement with alcohol for 4 hrs and measured 24 hrs after alcohol withdrawal by open field test. It counts as functional, organism-based. Particulars: dose 1-2.5 mg/kg.

Data set [8] in a line: Acute toxicity in C57BL/6J mouse assessed as poisoning symptoms at 1 g/Kg, po administered for 14 days. As to conditions: in vivo, 1000 mg/kg, 336 h, time 14 day. It counts as organism-based.
Data set [9] has as its system Mus musculus. The data set is described as follows: Protection against alcohol exposure-induced anxiety like behavior in C57BL/6J mouse model assessed as distance travelled at 1 to 2.5 mg/kg, po pre-trained with alcohol and water for 42 days with subsequent compound addition from day 22 to day 42 followed by 3.5 hrs of darkness and compound administration for 30 mins followed by water replacement with alcohol for 4 hrs and measured 24 hrs after alcohol withdrawal by open field test. It counts as functional, organism-based. As to conditions: dose 1-2.5 mg/kg.

The subject of data set [10] is Mus musculus. The data set is described as follows: Protection against alcoholic liver disease in NIAAA C57BL/6J mouse model assessed as decrease in serum AST level at 1 to 2.5 mg/kg, po preadministered with 1 to 4 % of alcohol for 10 days with subsequent compound addition from day 6 to 11 and further administered with 31.25 % alcohol on day 11 and measured after 9 hrs by absorbance based plate analyzer. It counts as functional, organism-based. Particulars: dose 1-2.5 mg/kg, time 5.0 day.

For data set [11], the target named is High affinity 3',5'-cyclic-AMP phosphodiesterase 7A (Homo sapiens) (UniProt Q13946). Put plainly: Inhibition of PDE7A (unknown origin) using FAM-cyclic-3',5'-AMP as substrate at 10 uM incubated for 1 hrs by fluorescence polarization based IMAP assay relative to control. On the technique in general: In fluorescence polarisation assays a small probe gives low polarisation when free and higher when bound to something large.

The test system of data set [12] is Mus musculus. Put plainly: Protection against alcoholic liver disease in NIAAA C57BL/6J mouse model assessed as reduction in serum TNF-alpha level at 1 to 2.5 mg/kg, po preadministered with 1 to 4 % of alcohol for 10 days with subsequent compound addition from day 6 to 11 and further administered with 31.25 % alcohol on day 11 and measured after 9 hrs by ELISA. Particulars: dose 1-2.5 mg/kg, time 5.0 day. In kind it is functional, organism-based. A general note: An ELISA detects its analyte on a solid surface through an enzyme-linked reagent.

The test system of data set [13] is Mus musculus. Put plainly: Protection against alcoholic liver disease in NIAAA C57BL/6J mouse model assessed as reduction in serum IL1-beta level at 1 to 2.5 mg/kg, po preadministered with 1 to 4 % of alcohol for 10 days with subsequent compound addition from day 6 to 11 and further administered with 31.25 % alcohol on day 11 and measured after 9 hrs by ELISA. As to conditions: dose 1-2.5 mg/kg, time 5.0 day. In kind it is functional, organism-based.

The test system of data set [14] is Mus musculus. The data set is described as follows: Protection against alcohol use disorder in C57BL/6J mouse model assessed as decrease in alcohol intake at 1 to 2.5 mg/kg, po pre-trained with alcohol and water for 42 days with subsequent compound addition on day 22 and measured after 3 weeks by two-bottle choice test. As to conditions: dose 1-2.5 mg/kg. It counts as functional, organism-based.

Data set [15] deals with Mus musculus. The data set is described as follows: Protection against alcohol-induced motor impairment in C57BL/6J mouse model assessed as short recovery time by measuring latency to falling off at 1 mg/kg, po preadministered with compound every 24 hrs for 3 times followed by alcohol administration 30 mins post last dose and further treated with compound for 3 days followed by alcohol administration 30 mins post last dose and measured at 2 to 20 mins by rotarod test. It counts as functional, organism-based. As to conditions: time 8702-8720 min. For orientation: Falling from the rotarod earlier than controls is read as motor impairment.

Data set [16] can be described thus: Selectivity ratio for inhibition of PDE7A (unknown origin) using FAM-cyclic-3',5'-AMP as substrate to inhibition of PDE4B1 (unknown origin) using FAM-cyclic-3',5'-AMP as substrate.
The test system of data set [17] is Mus musculus. The data set is described as follows: Protection against alcohol-induced motor impairment in C57BL/6J mouse model assessed as short recovery time by measuring latency to falling off at 2.5 mg/kg, po preadministered with compound every 24 hrs for 3 times followed by alcohol administration 30 mins post last dose and further treated with compound for 3 days followed by alcohol administration 30 mins post last dose and measured at 2 to 20 mins by rotarod test. In kind it is functional, organism-based. Particulars: time 8702-8720 min.

The subject of data set [18] is Mus musculus. Put plainly: Protection against alcoholic liver disease in NIAAA C57BL/6J mouse model assessed as improvement of liver injury at 1 to 2.5 mg/kg, po preadministered with 1 to 4 % of alcohol for 10 days with subsequent compound addition from day 6 to 11 and further administered with 31.25 % alcohol on day 11 and measured after 9 hrs by Oil Red O staining based light microscopic analysis. Particulars: dose 1-2.5 mg/kg, time 5.0 day. In kind it is functional, organism-based.

The nature of data set [19]: Drug concentration in Sprague-Dawley rat brain at 10 mg/kg, po administered as single dose for 1 hrs by LC-MS analysis. It counts as ADME, organism-based. Particulars: read-out: Ct.
A short description of data set [20]: Drug concentration in Sprague-Dawley rat brain at 10 mg/kg, po administered as single dose for 2 hrs by LC-MS analysis. It counts as ADME, organism-based. Particulars: read-out: Ct.
Data set [21] can be described thus: AUC (0 to infinity) in Sprague-Dawley rat at 2 mg/kg, iv measured after 24 hrs by LC-MS analysis. In kind it is ADME, organism-based. Particulars: in vivo.
Data set [22] has as its system Mus musculus. Put plainly: Protection against alcohol-induced motor impairment in C57BL/6J mouse model assessed as recovery of average speed at 1 to 2.5 mg/kg, po preadministered with compound every 24 hrs for 3 times followed by alcohol administration 30 mins post last dose and further treated with compound for 3 days followed by alcohol administration 30 mins post last dose and measured at 2 to 20 mins by open field test. It counts as functional, organism-based. As to conditions: dose 1-2.5 mg/kg, time 8702-8720 min.

Data set [23] can be described thus: Chemical stability of compound in aqueous solution at pH >10 measured after 48 hrs. In kind it is physicochemical. Particulars: buffer.
A short description of data set [24]: Drug concentration in Sprague-Dawley rat plasma at 10 mg/kg, po administered as single dose for 1 hrs by LC-MS analysis. It counts as ADME, organism-based.

Chain of High affinity 3',5'-cyclic-AMP phosphodiesterase 7A (Homo sapiens) (Q13946 whole entry): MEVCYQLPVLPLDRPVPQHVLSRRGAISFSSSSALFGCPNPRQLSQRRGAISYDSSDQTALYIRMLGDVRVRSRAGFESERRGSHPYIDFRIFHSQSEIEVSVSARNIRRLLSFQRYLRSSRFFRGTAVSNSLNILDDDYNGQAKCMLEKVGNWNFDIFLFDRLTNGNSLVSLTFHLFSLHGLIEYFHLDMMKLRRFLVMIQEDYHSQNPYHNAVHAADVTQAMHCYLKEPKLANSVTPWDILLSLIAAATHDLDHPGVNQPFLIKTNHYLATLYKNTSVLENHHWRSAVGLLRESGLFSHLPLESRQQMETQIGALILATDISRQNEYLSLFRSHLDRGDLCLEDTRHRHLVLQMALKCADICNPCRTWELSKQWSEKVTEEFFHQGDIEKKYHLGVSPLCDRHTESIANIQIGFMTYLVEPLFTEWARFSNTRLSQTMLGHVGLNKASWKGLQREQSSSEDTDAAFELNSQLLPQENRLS

As for `CCOc1nc(Cl)cc2c1cnn2CCCC(=O)O`, the AUC(0-inf) in [1] is 828 µg·h/mL; in [21], 143 µg·h/mL. Moreover, the outcome with Mus musculus [2], with Mus musculus [3], in the data set with Mus musculus [4], in the data set with Mus musculus [7], with Mus musculus [9] and in the data set with Mus musculus [10] was Active. The outcome in the data set on Mus musculus [12], in the data set on Mus musculus [13], in the data set on Mus musculus [14], in the data set with Mus musculus [17], in the data set with Mus musculus [18] and in the data set on Mus musculus [22] was Active. Further, the Selectivity ratio in data set [5] and in data set [16] was above 267 in each case. In addition, the Cmax in [6] was determined as 43300 ng/mL. Further, the Activity result in data set [8] was “Non-Toxic”. Moreover, in data set [11], the inhibition came to 11%. Further, in the data set with Mus musculus [15], the outcome was inactive. Also, the results for the concentration at 1 h in [19] and in data set [24] were 322 ng/g and 19500 ng/mL, respectively. In data set [20], the concentration at 2 h was found to be 441 ng/g. Also, the Stability result in [23] is “Stable”.

The AUC(0-inf) is total exposure, with the tail of the curve extrapolated. Read a low AUC(0-inf) as less exposure. Usually Cmax stands for the maximum level reached in the sampled fluid or tissue. Usually inhibition stands for the relative decrease from the control value, in per cent.

The record behind these values is ChEMBL document CHEMBL5532675, “Discovery of 4-Ethoxy-6-chloro-5-azaindazoles as Novel PDE4 Inhibitors for the Treatment of Alcohol Use Disorder and Alcoholic Liver Diseases” (J Med Chem, 2024).
